Measured values from patent US7393937B2, “N-acetylglucosamine derivatives and use thereof” (Kao Corporation, priority 2002, dated 2008).

Key:
[1] = system: Normal human epidermal cells; assay: Test Example 2: hyaluronic acid production promotion in normal human epidermal cells; type: cell-based; settings: 48-hour culture, FIG. 3
From the text: Normal human epidermal cells (manufactured by Kurabo Industries Ltd.) were inoculated into 24-well plates and cultured in a culture medium for proliferation to the confluent density, and then 2-acetamido-1,3,4,6-tetra-O-acetyl-2-deoxy-β-D-glucopyranoside represented by formula (17) to a final concentration of 100 μmol/L, N-acetylglucosamine derivative obtained in Production Example 9 at a final concentration of 1 mmol/L, and N-acetylglucosamine derivatives obtained in Production Examples 10 to 12 at a final concentration of 100 mmol/L were added. After 48-hour culture from the addition, the amount of hyaluronic acid released into the culture medium was measured. The measurement of the hyaluronic acid was carried out by using a commercially available hyaluronic acid measurement kit (manufactured by Chugai Pharmaceutical Co., Ltd.).

cultured epidermal cells = settings: 5 mmol/L; independently from cell proliferation; cited from earlier work
[2] = 100 mmol/L (so in the source), 1/10 concentration of N-acetylglucosamine

Row | SMILES | hyaluronic acid production-promoting effect compared with N-acetylglucosamine [1, 2] [times] | further results
1 | CC(=O)NC1C(OC(C)=O)OC(COC(C)=O)C(OC(C)=O)C1OC(C)=O [formula (17), 2-acetamido-1,3,4,6-tetra-O-acetyl-2-deoxy-β-D-glucopyranoside] |  | hyaluronic acid production-promoting effect compared with N-acetylglucosamine ([1]; 100 μmol/L (1/10 concentration of N-acetylglucosamine)): 3.0 times
2 | CCOC1OC(COC(C)=O)C(OC(C)=O)C(OC(C)=O)C1NC(C)=O [Production Example 9, ethyl(2-acetamido-3,4,6-tri-O-acetyl-2-deoxy)β-D-glucopyranoside] |  | hyaluronic acid production-promoting effect compared with N-acetylglucosamine ([1]; 1 mmol/L (same concentration as N-acetylglucosamine)): 6.5 times
3 | CC(=O)N[C@H]1C(O)O[C@H](CO)[C@@H](O)[C@@H]1O (stereo partly drawn) [N-acetylglucosamine] |  | promotion of hyaluronic acid production (cultured epidermal cells): about 1.5 times
4 | CC(=O)NC1C(OC/C=C(\C)CCC=C(C)C)OC(COC(C)=O)C(OC(C)=O)C1OC(C)=O [Production Example 12, geranyl(2-acetamido-3,4,6-tri-O-acetyl-2-deoxy)β-D-glucopyranoside] | 3.7 | 
5 | CCCCCOC1OC(COC(C)=O)C(OC(C)=O)C(OC(C)=O)C1NC(C)=O [Production Example 10, pentyl(2-acetamido-3,4,6-tri-O-acetyl-2-deoxy)β-D-glucopyranoside] | 3.8 | 
6 | CCCCCCCCOC1OC(COC(C)=O)C(OC(C)=O)C(OC(C)=O)C1NC(C)=O [Production Example 11, octyl(2-acetamido-3,4,6-tri-O-acetyl-2-deoxy)β-D-glucopyranoside] | 2.8 | 
